The values that follow are results of earlier work, collected in patent US20240390277A1, “LIQUID FORMULATIONS OF TRAZODONE” (Rubicon Research Private Limited, priority 2023, published 2024).

The conditions of this data set: humans.

For the molecule `O=c1n(CCCN2CCN(c3cccc(Cl)c3)CC2)nc2ccccn12` [Trazodone], the Volume of distribution is reported as 1.2 L/kg.
